Here are results for 41 compounds from patent publication US9682940B2, “Indazole derivatives useful as CB-1 inverse agonists” (Janssen Pharmaceutica NV, priority 2015, dated 2017).

For experiment [1], the target named is Human CB1R (Cannabanoid receptor 1) (Homo sapiens (Human), UniProt P21554). Put plainly: CB-1 in vitro cAMP (HTRF) assay in HEK-293 cells. It is filed as cell-based. As to conditions: HEK-293 cells stably transfected with human CB1R, 250 nM Forskolin, mean where tested more than once, read-out: CB-1 (HEK_cAMP) EC50. The gist of the method:
(§1)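 HEK-293 cells stably expressing human CB1 or CB2 plated overnight, then tested in HBSS/5 mM HEPES/0.1% BSA with 0.5 mM IBMX and forskolin (1.5 μM working dilution). Intracellular cAMP quantified by competitive HTRF immunoassay (d2-cAMP, cryptate anti-cAMP) against a cAMP standard curve; compounds as 1/3 serial dilutions from 10 mM DMSO stocks.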

In experiment [2] the target is Human CB2R (Cannabanoid receptor 2) (Homo sapiens (Human), UniProt P34972). Put plainly: CB-2 in vitro cAMP (HTRF) assay in HEK-293 cells. It is filed as cell-based. The settings on record: HEK-293 cells stably transfected with human CB2R, 250 nM Forskolin, mean where tested more than once, read-out: CB-2 (HEK_cAMP) EC50. The gist of the method: as §1
Human CB2R (Cannabanoid receptor 2), sequence (P34972 whole entry): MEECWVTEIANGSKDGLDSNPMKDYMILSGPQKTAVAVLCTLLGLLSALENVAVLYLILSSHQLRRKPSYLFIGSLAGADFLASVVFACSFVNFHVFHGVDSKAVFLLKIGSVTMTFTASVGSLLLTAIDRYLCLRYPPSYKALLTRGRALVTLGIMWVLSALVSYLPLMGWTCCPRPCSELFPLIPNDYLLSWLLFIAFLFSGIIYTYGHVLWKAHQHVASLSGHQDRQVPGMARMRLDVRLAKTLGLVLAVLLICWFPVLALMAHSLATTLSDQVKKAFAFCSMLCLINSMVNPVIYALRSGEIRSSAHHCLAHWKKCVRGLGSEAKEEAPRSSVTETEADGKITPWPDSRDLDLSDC

Human CB1R (Cannabanoid receptor 1), sequence (P21554 whole entry): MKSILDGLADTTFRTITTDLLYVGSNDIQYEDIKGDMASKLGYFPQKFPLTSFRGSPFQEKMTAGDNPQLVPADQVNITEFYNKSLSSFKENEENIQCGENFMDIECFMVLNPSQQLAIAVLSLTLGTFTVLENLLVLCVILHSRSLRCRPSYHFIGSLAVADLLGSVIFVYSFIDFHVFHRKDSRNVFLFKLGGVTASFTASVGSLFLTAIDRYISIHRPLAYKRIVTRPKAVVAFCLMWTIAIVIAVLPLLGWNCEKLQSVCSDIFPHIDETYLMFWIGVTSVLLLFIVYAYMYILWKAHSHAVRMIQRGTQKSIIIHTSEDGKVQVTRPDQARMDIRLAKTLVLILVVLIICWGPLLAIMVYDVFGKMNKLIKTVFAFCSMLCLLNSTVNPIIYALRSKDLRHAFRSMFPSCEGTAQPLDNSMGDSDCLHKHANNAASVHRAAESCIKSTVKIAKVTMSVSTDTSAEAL

As to `CC(C)(O)Cn1nc(C2CCN(S(=O)(=O)C(F)(F)F)CC2)c2cc(C(c3ccc(Cl)cc3)c3ccc(Cl)cc3)ccc21` [Compound 201], the EC50 in experiment [1] is 2640 nM; in experiment [2] it was over 10000 nM.
`CC(O)Cn1nc(C2CCN(S(=O)(=O)C(F)(F)F)CC2)c2cc(C(c3ccc(Cl)cc3)c3ccc(Cl)cc3)ccc21` (stereo not shown) [Compound 202]: the EC50 was 169 nM in experiment [1] and over 10000 nM in experiment [2].
As for `O=C(O)Cc1ccc(N2CCC(c3c4cc(C(c5ccc(Cl)cc5)c5ccc(Cl)cc5)ccc4nn3C3CC3)CC2)cc1` [Compound 203], the half-maximal effective concentration (EC50) was 53 nM in experiment [1] and over 10000 nM in experiment [2].
Take `O=C(O)c1ccc(-n2nc(C3CCN(S(=O)(=O)C(F)(F)F)CC3)c3cc(C(c4ccc(Cl)cc4)c4ccc(Cl)cc4)ccc32)cc1` [Compound 204]: the 50% effective concentration (EC50) in experiment [1] is 19 nM; in experiment [2], over 10000 nM.
For the compound `NC(=O)c1ccc(-n2nc(C3CCN(S(=O)(=O)C(F)(F)F)CC3)c3cc(C(c4ccc(Cl)cc4)c4ccc(Cl)cc4)ccc32)cc1` [Compound 205], the EC50 in experiment [1] was 6 nM; in experiment [2], 2120 nM.
Regarding `NC(=O)c1ccc(N2CCC(c3n[nH]c4ccc(C(c5ccc(Cl)cc5)c5ccc(Cl)cc5)cc34)CC2)cc1` [Compound 208], the EC50 is 68 nM in experiment [1] and over 10000 nM in experiment [2].
Regarding `O=C(O)c1ccc(CN2CCC(c3nn(C4CC4)c4ccc(C(c5ccc(Cl)cc5)c5ccc(Cl)cc5)cc34)CC2)cc1` [Compound 209], the figures for the EC50 in experiment [1] and in experiment [2] were 68 nM and over 10000 nM, respectively.
The matching figures for `NC(=O)c1ccc(CN2CCC(c3nn(C4CC4)c4ccc(C(c5ccc(Cl)cc5)c5ccc(Cl)cc5)cc34)CC2)cc1` [Compound 210]: 134 nM and over 10000 nM.
Consider `O=C(O)COc1ccc(N2CCC(c3n[nH]c4ccc(C(c5ccc(Cl)cc5)c5ccc(Cl)cc5)cc34)CC2)cc1` [Compound 211], for which the EC50 in experiment [1] is 4690 nM; in experiment [2], over 10000 nM.
On to `O=C(O)c1cccc(N2CCC(c3n[nH]c4ccc(C(c5ccc(Cl)cc5)c5ccc(Cl)cc5)cc34)CC2)c1` [Compound 212], for which the concentration giving a half-maximal response (EC50) in experiment [1] is 1830 nM; in experiment [2], over 10000 nM.
For `O=C(O)c1ccc(N2CCC(c3n[nH]c4ccc(C(c5ccc(Cl)cc5)c5ccc(Cl)cc5)cc34)CC2)cc1` [Compound 213], in that order: 367 nM and over 10000 nM.
Turning to `O=C(O)Cc1cccc(N2CCC(c3n[nH]c4ccc(C(c5ccc(Cl)cc5)c5ccc(Cl)cc5)cc34)CC2)c1` [Compound 214], the figures for the EC50 in experiment [1] and in experiment [2] were 3240 nM and over 10000 nM, respectively.
Turning to `O=C(O)Cc1ccc(N2CCC(c3n[nH]c4ccc(C(c5ccc(Cl)cc5)c5ccc(Cl)cc5)cc34)CC2)cc1` [Compound 215], the 50% effective concentration (EC50) in experiment [1] was 2960 nM; in experiment [2] it was over 10000 nM.
The matching figures for `O=C(O)COc1cccc(N2CCC(c3n[nH]c4ccc(C(c5ccc(Cl)cc5)c5ccc(Cl)cc5)cc34)CC2)c1` [Compound 216]: 1280 nM and over 10000 nM.
Consider `NC(=O)COc1ccc(N2CCC(c3n[nH]c4ccc(C(c5ccc(Cl)cc5)c5ccc(Cl)cc5)cc34)CC2)cc1` [Compound 217], for which the concentration for a half-maximal effect (EC50) in experiment [1] was determined as 1030 nM; in experiment [2], 4100 nM.
Turning to `NC(=O)c1cccc(N2CCC(c3n[nH]c4ccc(C(c5ccc(Cl)cc5)c5ccc(Cl)cc5)cc34)CC2)c1` [Compound 218], the half-maximal effective concentration (EC50) in experiment [1] was 265 nM; in experiment [2] it was over 10000 nM.
For the compound `O=S(=O)(C(F)F)N1CCC(c2n[nH]c3ccc(C(c4ccc(Cl)cc4)c4ccc(Cl)cc4)cc23)CC1` [Compound 219], the EC50 is 1540 nM in experiment [1] and over 10000 nM in experiment [2].
As to `NC(=O)c1cccc(CN2CCC(c3n[nH]c4ccc(C(c5ccc(Cl)cc5)c5ccc(Cl)cc5)cc34)CC2)c1` [Compound 220], the half-maximal effective concentration (EC50) in experiment [1] was 27 nM; in experiment [2] it was over 10000 nM.
Take `O=C(O)c1ccc(CN2CCC(c3n[nH]c4ccc(C(c5ccc(Cl)cc5)c5ccc(Cl)cc5)cc34)CC2)cc1` [Compound 221]: the concentration giving a half-maximal response (EC50) is 134 nM in experiment [1] and over 42000 nM in experiment [2].
The matching figures for `NC(=O)c1ccc(CN2CCC(c3n[nH]c4ccc(C(c5ccc(Cl)cc5)c5ccc(Cl)cc5)cc34)CC2)cc1` [Compound 222]: 163 nM and over 10000 nM.
On to `NC(=O)Cc1ccc(N2CCC(c3n[nH]c4ccc(C(c5ccc(Cl)cc5)c5ccc(Cl)cc5)cc34)CC2)cc1` [Compound 223], for which the EC50 in experiment [1] was 699 nM; in experiment [2], over 10000 nM.
Consider `NC(=O)COc1ccc(N2CCC(c3n[nH]c4ccc(C(c5ccc(Cl)cc5)c5ccc(Cl)cc5)cc34)CC2)cc1` [Compound 224], for which the figures for the EC50 in experiment [1] and in experiment [2] were 2080 nM and over 10000 nM, respectively.
For the compound `O=C(O)c1cccc(CN2CCC(c3n[nH]c4ccc(C(c5ccc(Cl)cc5)c5ccc(Cl)cc5)cc34)CC2)c1` [Compound 225], the concentration for a half-maximal effect (EC50) in experiment [1] was determined as 56 nM; in experiment [2], 3300 nM.
For `Nc1ccc(C(c2ccc(Cl)cc2)c2ccc3[nH]nc(N4CCN(S(=O)(=O)C(F)(F)F)CC4)c3c2)cc1` (stereo not shown) [Compound 226], the half-maximal effective concentration (EC50) worked out at 8 nM in experiment [1] and 5500 nM in experiment [2].
On to `O=C(O)c1csc(CN2CCC(c3nn(C4CC4)c4ccc(C(c5ccc(Cl)cc5)c5ccc(Cl)cc5)cc34)CC2)c1` [Compound 227], for which the EC50 is 84 nM in experiment [1] and over 10000 nM in experiment [2].
For the compound `O=C(O)c1ccc(CN2CCC(c3c4cc(C(c5ccc(Cl)cc5)c5ccc(Cl)cc5)ccc4nn3C3CC3)CC2)o1` [Compound 228, 5-((4-(5-(bis(4-chlorophenyl)methyl)-2-cyclopropyl-2H-indazol-3-yl)piperidin-1-yl)methyl)furan-2-carboxylic acid], the figures for the EC50 in experiment [1] and in experiment [2] were 20 nM and over 10000 nM, respectively.
For `O=C(NCCO)c1ccc(-n2nc(C3CCN(S(=O)(=O)C(F)(F)F)CC3)c3cc(C(c4ccc(Cl)cc4)c4ccc(Cl)cc4)ccc32)cc1` [Compound 229], in that order: 37 nM and over 10000 nM.
On to `O=C(O)CCNC(=O)c1ccc(-n2nc(C3CCN(S(=O)(=O)C(F)(F)F)CC3)c3cc(C(c4ccc(Cl)cc4)c4ccc(Cl)cc4)ccc32)cc1` [Compound 230], for which the half-maximal effective concentration (EC50) is 3260 nM in experiment [1] and over 10000 nM in experiment [2].
In the case of `O=C(O)c1ccc([C@H](c2ccc(Cl)cc2)c2ccc3[nH]nc(C4CCN(S(=O)(=O)C(F)(F)F)CC4)c3c2)cc1` [Compound 231], the EC50 was 4200 nM in experiment [1] and over 10000 nM in experiment [2].
The matching figures for `O=C(O)c1ccc([C@H](c2ccc(Cl)cc2)c2ccc3[nH]nc(N4CCN(S(=O)(=O)C(F)(F)F)CC4)c3c2)cc1` [Compound 233]: 3550 nM and over 10000 nM.
`NC(=O)c1csc(CS(=O)(=O)N2CCC(c3nn(C4CC4)c4ccc(C(c5ccc(Cl)cc5)c5ccc(Cl)cc5)cc34)CC2)c1` [Compound 235]: the EC50 in experiment [1] was 22 nM; in experiment [2], over 10000 nM.
For the compound `O=C(O)c1ccc(CS(=O)(=O)N2CCC(c3nn(C4CC4)c4ccc(C(c5ccc(Cl)cc5)c5ccc(Cl)cc5)cc34)CC2)s1` [Compound 236], the results for the EC50 in experiment [1] and in experiment [2] were 68 nM and over 10000 nM, respectively.
Regarding `NC(=O)c1csc(CN2CCC(c3c4cc(C(c5ccc(Cl)cc5)c5ccc(Cl)cc5)ccc4nn3C3CC3)CC2)c1` [Compound 237, 5-((4-(5-(bis(4-chlorophenyl)methyl)-2-cyclopropyl-2H-indazol-3-yl)piperidin-1-yl)methyl)thiophene-3-carboxamide], the concentration giving a half-maximal response (EC50) in experiment [1] was 5 nM; in experiment [2], over 10000 nM.
The matching figures for `O=C(O)c1ccc(C(c2ccc(Cl)cc2)c2ccc3nn(C4CC4)c(C4CCN(S(=O)(=O)C(F)(F)F)CC4)c3c2)cc1` (stereo not shown) [Compound 238, 4-[(4-chlorophenyl) ([2-cyclopropyl-3-[1-(trifluoromethane)sulfonylpiperidin-4-yl]-2H-indazol-5-yl])methyl]benzoic acid]: 198 nM and over 10000 nM.
As for `O=C(O)c1csc(CN2CCC(c3c4cc(C(c5ccc(Cl)cc5)c5ccc(Cl)cc5)ccc4nn3C3CC3)CC2)c1` [Compound 239, 5-((4-(5-(bis(4-chlorophenyl)methyl)-2-cyclopropyl-2H-indazol-3-yl)piperidin-1-yl)methyl)thiophene-3-carboxylic acid], the EC50 in experiment [1] was 43 nM; in experiment [2], over 10000 nM.
The matching figures for `O=C(O)c1ccc(C(c2ccc(Cl)cc2)c2ccc3[nH]nc(C4CCN(S(=O)(=O)C(F)(F)F)CC4)c3c2)cn1` (stereo not shown) [Compound 241]: 1630 nM and over 10000 nM.
Take `O=C(O)c1ccc(CN2CCC(c3c4cc(C(c5ccc(Cl)cc5)c5ccc(Cl)cc5)ccc4nn3C3CC3)CC2)s1` [Compound 242, 5-((4-(5-(bis(4-chlorophenyl)methyl)-2-cyclopropyl-2H-indazol-3-yl)piperidin-1-yl)methyl)thiophene-2-carboxylic acid]: the concentration giving a half-maximal response (EC50) in experiment [1] was 16 nM; in experiment [2], over 10000 nM.
Consider `O=C(O)c1cccc(CN2CCC(c3nn(C4CC4)c4ccc(C(c5ccc(F)cc5)c5ccc(F)cc5)cc34)CC2)c1` [Compound 243], for which the EC50 is 285 nM in experiment [1] and over 10000 nM in experiment [2].
As to `Cc1ccc(C(c2ccc(C)cc2)c2ccc3c(c2)c(C2CCN(Cc4cccc(C(=O)O)c4)CC2)nn3C2CC2)cc1` [Compound 244], the EC50 was 48 nM in experiment [1] and over 10000 nM in experiment [2].
For the compound `O=C(O)c1cccc(CN2CCC(c3nn(C4CC4)c4ccc(C(c5ccccc5)c5ccc(Cl)cc5)cc34)CC2)c1` (stereo not shown) [Compound 245], the concentration giving a half-maximal response (EC50) in experiment [1] was 20 nM; in experiment [2], over 10000 nM.
The matching figures for `O=C(O)c1cccc(CN2CCC(c3nn(C4CC4)c4ccc(C(c5ccc(F)cc5)c5ccc(Cl)cc5)cc34)CC2)c1` (stereo not shown) [Compound 246]: 29 nM and over 10000 nM.
